EC50 data for one compound are collected here from patent US9067928B2 (Genentech, Inc., priority 2008, dated 2015).

The subject of the test is Mcl-1-/- mouse embryonic fibroblasts (MEF). Nature of the test: Cell viability assay for Mcl-1-/- mouse embryonic fibroblasts (CellTiter-Glo). It counts as cell-based. As to conditions: Fibroblast, 1% Fetal Bovine Serum, read-out: MEF Mcl-1-/- KO cell viability results (EC50). The text has this: a. Cell Viability Assay for Mcl-1^−/− Mouse Embryonic Fibroblasts (MEF):
Neutralization of both […] and Mcl-1 anti-apoptotic proteins in normal cells is required before a cell undergoes apoptosis via the downstream Bax/Bak pathway See, Chen. L. et al. Mol. Cell (2005) 17, 393-403; Willis, S. N. et al. Genes Dev. (2005) 19, 1294-1305. A compound that only targets Bcl-xL should not affect normal cells, but could kill certain cancer cells if they rely more on Bcl-xL and less on other anti-apoptotic proteins, e.g. Mcl-1, for survival. To mirror this, compounds of the invention were tested for its effect on survival of wild type (wt) mouse embryo fibroblasts (MEFs), Bax/Bak double knockout (BB DKO) MEFs, MEFs that expressed Noxa, and MEFs that expressed Bad. Noxa specifically neutralizes Mcl-1. […] MEFs that express Noxa mirror cancer cell types that are reliant on Bcl-xL for survival and should be much more sensitive to killing by a Bcl-xL targeting compound than MEFs where both Bcl-xL and Mcl-1 are protective.
In this assay, Mcl-1^(−/−) cells were used to confirm that cell apoptosis in the presence of BH3 mimetic small molecules was due to predominantly Bcl-xL inactivation. This inactivation leaves Bax/Bak unconstrained and results in apoptosis. The […]-GLO Luminescent Cell Viability Assay is a homogeneous method of determining the number of viable cells in culture based on quantitation of the ATP present. The amount of ATP correlates with the presence of metabolically active cells such that following cell lysis the amount of ATP present is proportional to the amount of luminescence measured.
Mcl-1^(−/−) mouse embryonic fibroblasts (MEFs) are an adherent cell line prepared in house. MEFs were grown in Iwaki 75 cm^2 tissue culture flasks (cat #3123-075) with FMA media which consists of: • 89% DME Kelso • 10% heat-inactivated foetal calf serum (FCS) (Hyclone cat #SH30396.03) • 1% 10 mM asparagine (Fluka cat #11149) • 275 μl of a 1:2000 dilution of 2-mercaptoethanol is added to the final 500 ml volume of FMA (Sigma cat #M7522; diluted in MT-PBS)
FMA was stored at 4° C. and used at 37° C. MEFs were cultured in FMA media and harvested in MT-PBS and trypsin. For MEF cell viability assays, cells were seeded separately in plates with 10% FCS-FMA and 1% FCS-FMA. […]
Automated Systems that can be used in this assay include: 1) Multidrop—The MULTIDROP 384 (ThermoLabsystems) dispenser was used to dispense cells aseptically into the assay plates: 2) MiniTrak—The […] system from Perkin Elmer was used for titration of the compound plates; 3) Zymark—The ZYMARK SCICLONE ALH3000 System with 100 nL pintool head was used for compound addition to the cells; 4) EnVision—The ENVISION plate reader was used to measure the viability via the detection of the luminescence. […]
(In general: ATP-based viability assays read luminescence as a measure of living cells.)

`O=C(O)c1nc(-c2ccc3c(c2)N(C(=O)Nc2nc4ccccc4s2)CCC3)sc1-c1ccc(-c2ccccc2)cc1` [Example 92, 2-(1-(benzo[d]thiazol-2-ylcarbamoyl)-1,2,3,4-tetrahydroquinolin-7-yl)-5-(biphenyl-4-yl)thiazole-4-carboxylic acid]: the EC50 came to 0.15 µM.
